Experimental data: ChEMBL document CHEMBL4316583, “In Vitro and in Vivo Antitumor Effects of Plant-Derived Miliusanes and Their Induction of Cellular Senescence” (J Med Chem, 2019)
Calls of active or inactive are those of the source. The calls are words filed in the database; no cut-off is given here.

Legend:
[1] = tested on: HCT-116; experiment: Induction cell cycle arrest in human HCT116 cells assessed as reduction in accumulation in S phase at 1.6 uM after 12 hrs by propidium iodide-staining based flow cytometry; format: functional
[2] = tested on: HCT-116; experiment: Growth inhibition human HCT116 cells after 72 hrs by MTS assay; format: functional, cell-based; details: HCT-116, 72 h
[3] = Ratio of IC50 for human A2780/TAX cells to IC50 for human A2780 cells after 72 hrs by MTS assay; format: functional
[4] = tested on: A549; experiment: Cytotoxicity against human A549 cells assessed as cell growth inhibition after 48 hrs by sulforhodamine B assay; format: functional, cell-based; details: A549, 48 h
[5] = Toxicity in nude BALB/c mouse xenografted with human HCT116 cells assessed as body weight loss at 7.5 mg/kg, ip measured on day 10 and 11; format: organism-based; details: in vivo
[6] = Toxicity in BALB/c mouse assessed as mortality at 10 mg/kg, ip dosed daily for 28 days; format: organism-based; details: in vivo, 672 h
[7] = tested on: A-375; experiment: Antitumor activity against human A375 cells xenografted in nude BALB/c mouse assessed as suppression of tumor volume at 7.5 mg/kg, ip administered every other day for 23 days relative to control; format: functional; details: A-375, ip, 552 h, read-out: TGI
[8] = tested on: HCT-116; experiment: Antitumor activity against human HCT116 cells xenografted in nude BALB/c mouse assessed as suppression of excised tumor size at 30 mg/kg, ip administered twice a week for 3 weeks relative to control; format: functional
[9] = tested on: HCT-116; experiment: Cytotoxicity against human HCT116 cells assessed as cell growth inhibition after 24 hrs by sulforhodamine B assay; format: functional, cell-based; details: HCT-116, 24 h
[10] = tested on: HCT-116; experiment: Antitumor activity against human HCT116 cells xenografted in nude BALB/c mouse assessed as reduction in volume of growing subcutaneous tumor at 20 to 30 mg/kg, ip administered twice a week for 3 weeks; format: functional, organism-based
[11] = tested on: HCT-116; experiment: Induction of apoptosis in human HCT116 cells assessed as necrotic cells at 1.32 uM after 48 hrs by annexin V/propidium iodide-double staining based flow cytometry (reference value: […]); format: functional
[12] = tested on: HeLa; experiment: Antitumor activity against human HeLa cells xenografted in nude BALB/c mouse assessed as tumor growth inhibition at 10 mg/kg, ip administered every other day for 21 days and observed for 6 days before sacrifice relative to control; format: functional; details: read-out: TGI
[13] = tested on: Mus musculus; experiment: Induction of cellular senescence in BALB/c mouse xenografted with human HCT116 cells assessed as up-regulation of p21 protein expression at 10 mg/kg, administered every other day for 3 weeks by immunohistochemical analysis; format: functional, organism-based
[14] = Ratio of IC50 for human HCT116/VM46 cells to IC50 for human HCT116 cells after 72 hrs by MTS assay; format: functional
[15] = tested on: HCT-116; experiment: Cytotoxicity against human HCT116 cells assessed as cell growth inhibition after 48 hrs by sulforhodamine B assay; format: functional, cell-based; details: HCT-116, 48 h
[16] = tested on: HCT-116; experiment: Induction of cellular senescence in human HCT116 cells assessed as up-regulation of p21 protein expression at 0.1 to 0.4 ug/ml after 48 hrs by Western blot analysis; format: functional, cell-based
[17] = tested on: HCT-116; experiment: Antiproliferative activity against human HCT116 cells assessed as inhibition of colony formation at 0.66 to 2.63 uM after 14 days by crystal violet-staining based assay; format: functional, cell-based
[18] = tested on: HCT-116; experiment: Induction of cellular senescence in human HCT116 cells at 1.32 uM after 48 hrs by SA-beta-gal-staining based assay; format: functional, cell-based
[19] = tested on: HCT-116; experiment: Antitumor activity against human HCT116 cells xenografted in nude BALB/c mouse assessed as tumor growth inhibition at 7.5 mg/kg, ip administered daily for 21 days relative to control; format: functional; details: HCT-116, ip, 504 h, read-out: TGI
[20] = tested on: A2780; experiment: Growth inhibition human A2780 cells after 72 hrs by MTS assay; format: functional, cell-based; details: A2780, 72 h
[21] = Ratio of IC50 for human HCT116/VP35 cells to IC50 for human HCT116 cells after 72 hrs by MTS assay; format: functional
[22] = tested on: A-375; experiment: Antitumor activity against human A375 cells xenografted in nude BALB/c mouse assessed as tumor growth inhibition at 7.5 mg/kg, ip administered every other day for 23 days relative to control; format: functional; details: A-375, ip, 552 h, read-out: TGI
[23] = tested on: HCT-116; experiment: Induction cell cycle arrest in human HCT116 cells assessed as accumulation in G1 phase at 1.6 uM after 12 hrs by propidium iodide-staining based flow cytometry; format: functional
[24] = tested on: HCT-116; experiment: Antitumor activity against human HCT116 cells xenografted in nude BALB/c mouse assessed as tumor growth inhibition at 20 mg/kg, ip administered twice a week for 3 weeks relative to control; format: functional; details: HCT-116, ip, 504 h, read-out: TGI
[25] = tested on: HCT-116; experiment: Induction of apoptosis in human HCT116 cells assessed as early apoptotic cells at 1.32 uM after 48 hrs by annexin V/propidium iodide-double staining based flow cytometry (reference value: 4.8%); format: functional
[26] = tested on: HCT-116; experiment: Induction of apoptosis in human HCT116 cells assessed as late apoptotic cells at 1.32 uM after 48 hrs by annexin V/propidium iodide-double staining based flow cytometry (reference value: 4.6%); format: functional
[27] = tested on: HeLa; experiment: Antitumor activity against human HeLa cells xenografted in nude BALB/c mouse assessed as suppression of excised tumor size at 10 mg/kg, ip administered every other day for 21 days and observed for 6 days before sacrifice relative to control; format: functional
[28] = Toxicity in nude BALB/c mouse xenografted with human HCT116 cells assessed as body weight loss at 20 to 30 mg/kg, ip administered twice a week for 3 weeks; format: organism-based; details: in vivo, 504 h
[29] = tested on: HCT-116; experiment: Induction of apoptosis in human HCT116 cells assessed as viable cells at 1.32 uM after 48 hrs by annexin V/propidium iodide-double staining based flow cytometry (reference value: 88.3%); format: functional; details: HCT-116, 48 h, read-out: Activity
[30] = tested on: HCT-116; experiment: Antitumor activity against human HCT116 cells xenografted in nude BALB/c mouse assessed as tumor growth inhibition at 30 mg/kg, ip administered twice a week for 3 weeks relative to control; format: functional; details: HCT-116, ip, 504 h, read-out: TGI
[31] = tested on: HCT-116; experiment: Induction cell cycle arrest in human HCT116 cells assessed as accumulation in S phase at 1.6 uM after 24 hrs by propidium iodide-staining based flow cytometry; format: functional
[32] = tested on: Mus musculus; experiment: Effect on p27 protein expression in BALB/c mouse xenografted with human HCT116 cells at 10 mg/kg, administered every other day for 3 weeks by immunohistochemical analysis; format: functional, organism-based
[33] = tested on: Panel NCI-60 (60 carcinoma cell lines); experiment: Growth inhibition human NCI60 cells after 48 hrs by sulforhodamine B assay; format: functional
[34] = tested on: Mus musculus; experiment: Induction of cellular senescence in BALB/c mouse xenografted with human HCT116 cells assessed as up-regulation of p16 protein expression at 10 mg/kg, administered every other day for 3 weeks by immunohistochemical analysis; format: functional, organism-based
[35] = Ratio of IC50 for human A2780DDP cells to IC50 for human A2780 cells after 72 hrs by MTS assay; format: functional
[36] = tested on: HCT-116; experiment: Induction of cellular senescence in human HCT116 cells assessed as up-regulation of p21 protein expression at 1.32 uM after 48 hrs in presence of p21 siRNA by SA-beta-gal-staining based Western blot analysis; format: functional, cell-based
[37] = tested on: HCT-116; experiment: Antiproliferative activity against human HCT116 cells xenografted in BALB/c mouse at 10 mg/kg, administered every other day for 3 weeks by Ki67-staining based assay; format: functional, organism-based
[38] = tested on: HCT-116; experiment: Antitumor activity against human HCT116 cells xenografted in nude BALB/c mouse assessed as suppression of excised tumor size at 20 mg/kg, ip administered twice a week for 3 weeks relative to control; format: functional
[39] = tested on: HT-29; experiment: Growth inhibition human HT-29 cells after 72 hrs by MTS assay; format: functional, cell-based
[40] = tested on: A-375; experiment: Cytotoxicity against human A375 cells assessed as cell growth inhibition after 48 hrs by sulforhodamine B assay; format: functional, cell-based; details: A-375, 48 h

## CC(C)=CCC/C(C)=C/[C@H]1OC(=O)C[C@]12C[C@H](O)C=CC2=O
[1]
  Activity: inactive
[2]
  IC50: 1520 nM
[3]
  Ratio IC50: 0.8
[4]
  IC50: 2450 nM
[5]
  Activity: Toxic
[6]
  Activity: Non-Toxic
[7]
  inhibition in vivo at 7.5 mg/kg: 20.6%
[8]
  Activity: 68.7%
[9]
  IC50: 3670 nM
[10]
  Activity: Active
[11]
  Activity: 2.5%
[12]
  inhibition in vivo at 10 mg/kg: 30%
[13]
  Activity: Active
[14]
  Ratio IC50: 0.9
[15]
  IC50: 2000 to 2610 nM
[16]
  Activity: Active
[17]
  Activity: Active
[18]
  Activity: Active
[19]
  inhibition in vivo at 7.5 mg/kg: 29.9%
[20]
  IC50: 1230 nM
[21]
  Ratio IC50: 1.1
[22]
  inhibition in vivo at 7.5 mg/kg: 12.8%
[23]
  Activity: Active
[24]
  inhibition in vivo at 20 mg/kg: 68.7%
[25]
  Activity: 4.4%
[26]
  Activity: 4.9%
[27]
  Activity: 31.5%
[28]
  Activity: 1 g
[29]
  viability at 1.32 µM: 88.2%
[30]
  inhibition in vivo at 30 mg/kg: 72.7%
[31]
  Activity: inactive
[32]
  Activity: inactive
[33]
  GI50: 30 to 4790 nM
[34]
  Activity: Active
[35]
  Ratio IC50: 1
[36]
  Activity: inactive
[37]
  Activity: Active
[38]
  Activity: 72.7%
[39]
  growth inhibition (GI): Active
[40]
  IC50: 1500 nM
